{"source": "PubChem BioAssay AID256", "about": "(DTP/NCI, 2004)", "tested_on": "CD2F1 mice, L1210 leukemia ip, survival T/C", "test": "NCI In Vivo Anticancer Drug Screen. Data for tumor model L1210 Leukemia (intraperitoneal) in CD2F1 (CDF1) mice", "conditions": "higher = longer survival", "method_in_brief": "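Read-out first: treated-group measurement over vehicle-control measurement, expressed as a ratio. Animals bore a transplanted tumor line and were dosed with compound or vehicle.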", "key": {"[1]": {"conditions": "endpoint: mean survival time, dose: 50.0 mg/kg/injection, schedule: Q04DX003 (ip), vehicle: saline"}, "[2]": {"conditions": "endpoint: mean survival time, dose: 100.0 mg/kg/injection, schedule: Q04DX003 (ip), vehicle: saline with Tween-80"}, "[3]": {"conditions": "endpoint: mean survival time, dose: 100.0 mg/kg/injection, schedule: Q04DX003 (ip), vehicle: saline"}, "[4]": {"conditions": "endpoint: mean survival time, dose: 200.0 mg/kg/injection, schedule: Q04DX003 (ip), vehicle: saline"}, "[5]": {"conditions": "endpoint: mean survival time, dose: 50.0 mg/kg/injection, schedule: Q01DX009 (ip), vehicle: saline with Tween-80"}, "[6]": {"conditions": "endpoint: mean survival time, dose: 100.0 mg/kg/injection, schedule: Q01DX009 (ip), vehicle: saline with Tween-80"}, "[7]": {"conditions": "endpoint: mean survival time, dose: 100.0 mg/kg/injection, schedule: Q01DX001 (ip), vehicle: saline with Tween-80"}, "[8]": {"conditions": "endpoint: mean survival time, dose: 200.0 mg/kg/injection, schedule: Q01DX001 (ip), vehicle: saline with Tween-80"}, "[9]": {"conditions": "endpoint: mean survival time, dose: 400.0 mg/kg/injection, schedule: Q01DX001 (ip), vehicle: saline with Tween-80"}}, "note": "Where “and” joins values, the source holds several entries; their conditions need not be identical. Equal entries are not always repeated. Toxic doses and inconclusive results are not listed.", "data": [{"smiles": "O=P(N1CCCCCC1)(N1CCCCCC1)N1CCCCCC1.O=[N+]([O-])O.O=[N+]([O-])O.[O]=[U]=[O]", "values": [{"measurement": "T/C", "setting": "endpoint: mean survival time, dose: 6.25 mg/kg/injection, schedule: Q04DX003 (ip), vehicle: Klucel (hydroxypropylcellulose) (HPC)", "result": "109 % of control"}]}, {"smiles": "CC(=[C-]C(=O)O)C(=O)O.[NH-]C1CCCCC1[NH-].[Pt]", "values": [{"measurement": "T/C", "setting": "endpoint: median survival time, dose: 6.25 mg/kg/injection, schedule: Q04DX003 (ip), vehicle: saline", "result": "100 % of control"}, {"measurement": "T/C", "setting": "endpoint: median survival time, dose: 12.5 mg/kg/injection, schedule: Q04DX003 (ip), vehicle: saline", "result": "100 % of control"}, {"measurement": "T/C", "setting": "endpoint: median survival time, dose: 25.0 mg/kg/injection, schedule: Q04DX003 (ip), vehicle: saline", "result": "102 % of control"}, {"measurement": "T/C", "setting": "endpoint: median survival time, dose: 50.0 mg/kg/injection, schedule: Q04DX003 (ip), vehicle: saline", "result": "108 % of control"}, {"measurement": "T/C", "setting": "endpoint: median survival time, dose: 100.0 mg/kg/injection, schedule: Q04DX003 (ip), vehicle: saline", "result": "112 % of control"}]}, {"smiles": "[Cl][Pt+2][Cl].[NH-]c1ccc(F)cc1F.[NH-]c1ccc(F)cc1F", "values": [{"measurement": "T/C", "setting": "endpoint: mean survival time, dose: 12.5 mg/kg/injection, schedule: Q04DX003 (ip), vehicle: distilled water + Tween-80", "result": "114 % of control and 104 % of control and 110 % of control"}, {"measurement": "T/C", "setting": "endpoint: mean survival time, dose: 25.0 mg/kg/injection, schedule: Q04DX003 (ip), vehicle: distilled water + Tween-80", "result": "115 % of control and 117 % of control and 96 % of control"}, {"measurement": "T/C", "setting": "endpoint: mean survival time, dose: 50.0 mg/kg/injection, schedule: Q04DX003 (ip), vehicle: distilled water + Tween-80", "result": "116 % of control and 105 % of control"}, {"measurement": "T/C", "setting": "endpoint: mean survival time, dose: 100.0 mg/kg/injection, schedule: Q04DX003 (ip), vehicle: distilled water + Tween-80", "result": "122 % of control and 88 % of control and 94 % of control"}]}, {"smiles": "COc1cc2cc3c4cc5c(cc4cc[n+]3c(C)c2cc1OC)OCO5", "note": "(tested in a mixture with another compound)", "values": [{"measurement": "T/C", "setting": "endpoint: mean survival time, dose: 25.0 mg/kg/injection, schedule: Q04DX003 (ip), vehicle: saline", "result": "122 % of control"}, {"measurement": "T/C", "setting": "[1]", "result": "122 % of control"}, {"measurement": "T/C", "setting": "[2]", "result": "92 % of control"}, {"measurement": "T/C", "setting": "[3]", "result": "118 % of control"}]}, {"smiles": "COc1ccc(CCNC(=O)Cc2ccc(OC)c(OC)c2)cc1OC", "values": [{"measurement": "T/C", "setting": "[1]", "result": "93 % of control"}, {"measurement": "T/C", "setting": "[3]", "result": "96 % of control"}, {"measurement": "T/C", "setting": "[4]", "result": "96 % of control"}]}, {"smiles": "O=S(=O)(CCl)OCCCl", "values": [{"measurement": "T/C", "setting": "endpoint: mean survival time, dose: 6.25 mg/kg/injection, schedule: Q01DX009 (ip), vehicle: saline with Tween-80", "result": "101 % of control"}, {"measurement": "T/C", "setting": "endpoint: mean survival time, dose: 12.5 mg/kg/injection, schedule: Q01DX009 (ip), vehicle: saline with Tween-80", "result": "115 % of control and 117 % of control"}, {"measurement": "T/C", "setting": "endpoint: mean survival time, dose: 25.0 mg/kg/injection, schedule: Q01DX009 (ip), vehicle: saline with Tween-80", "result": "120 % of control"}, {"measurement": "T/C", "setting": "[5]", "result": "193 % of control"}, {"measurement": "T/C", "setting": "[6]", "result": "86 % of control"}, {"measurement": "T/C", "setting": "endpoint: median survival time, dose: 6.25 mg/kg/injection, schedule: Q01DX009 (ip), vehicle: saline with Tween-80", "result": "101 % of control and 108 % of control"}, {"measurement": "T/C", "setting": "endpoint: median survival time, dose: 12.5 mg/kg/injection, schedule: Q01DX009 (ip), vehicle: saline with Tween-80", "result": "100 % of control and 104 % of control"}, {"measurement": "T/C", "setting": "endpoint: median survival time, dose: 50.0 mg/kg/injection, schedule: Q01DX009 (ip), vehicle: saline with Tween-80", "result": "120 % of control"}, {"measurement": "T/C", "setting": "endpoint: median survival time, dose: 100.0 mg/kg/injection, schedule: Q01DX009 (ip), vehicle: saline with Tween-80", "result": "173 % of control"}]}, {"smiles": "Nc1nc[nH]c(=O)c1N", "values": [{"measurement": "T/C", "setting": "[7]", "result": "107 % of control"}, {"measurement": "T/C", "setting": "[8]", "result": "107 % of control"}, {"measurement": "T/C", "setting": "[9]", "result": "102 % of control"}]}, {"smiles": "c1ccc(-c2nn[nH]n2)nc1", "values": [{"measurement": "T/C", "setting": "endpoint: mean survival time, dose: 100.0 mg/kg/injection, schedule: Q01DX001 (ip), vehicle: saline", "result": "101 % of control"}, {"measurement": "T/C", "setting": "[3]", "result": "90 % of control and 104 % of control"}, {"measurement": "T/C", "setting": "endpoint: mean survival time, dose: 200.0 mg/kg/injection, schedule: Q01DX001 (ip), vehicle: saline", "result": "101 % of control"}, {"measurement": "T/C", "setting": "[4]", "result": "102 % of control and 104 % of control"}, {"measurement": "T/C", "setting": "endpoint: mean survival time, dose: 400.0 mg/kg/injection, schedule: Q04DX003 (ip), vehicle: saline", "result": "94 % of control and 108 % of control"}]}, {"smiles": "OCCc1ccccc1", "values": [{"measurement": "T/C", "setting": "endpoint: mean survival time, dose: 50.0 mg/kg/injection, schedule: Q03HX024 (ip), vehicle: saline with Tween-80", "result": "102 % of control"}, {"measurement": "T/C", "setting": "endpoint: mean survival time, dose: 100.0 mg/kg/injection, schedule: Q03HX024 (ip), vehicle: saline with Tween-80", "result": "100 % of control"}, {"measurement": "T/C", "setting": "[2]", "result": "96 % of control"}, {"measurement": "T/C", "setting": "endpoint: mean survival time, dose: 125.0 mg/kg/injection, schedule: Q01DX009 (ip), vehicle: saline", "result": "105 % of control"}, {"measurement": "T/C", "setting": "endpoint: mean survival time, dose: 200.0 mg/kg/injection, schedule: Q03HX024 (ip), vehicle: saline with Tween-80", "result": "100 % of control"}, {"measurement": "T/C", "setting": "endpoint: mean survival time, dose: 200.0 mg/kg/injection, schedule: Q04DX003 (ip), vehicle: saline with Tween-80", "result": "93 % of control"}, {"measurement": "T/C", "setting": "endpoint: mean survival time, dose: 250.0 mg/kg/injection, schedule: Q01DX009 (ip), vehicle: saline", "result": "102 % of control"}, {"measurement": "T/C", "setting": "endpoint: mean survival time, dose: 400.0 mg/kg/injection, schedule: Q04DX003 (ip), vehicle: saline with Tween-80", "result": "93 % of control"}, {"measurement": "T/C", "setting": "endpoint: mean survival time, dose: 500.0 mg/kg/injection, schedule: Q01DX001 (ip), vehicle: saline with Tween-80", "result": "106 % of control"}, {"measurement": "T/C", "setting": "endpoint: mean survival time, dose: 500.0 mg/kg/injection, schedule: Q01DX009 (ip), vehicle: saline", "result": "103 % of control"}]}, {"smiles": "CC(=O)OC(c1ccccc1)C(C)C(O)(C(F)(F)F)C(F)(F)F", "note": "(stereo not given)", "values": [{"measurement": "T/C", "setting": "[7]", "result": "98 % of control"}, {"measurement": "T/C", "setting": "[8]", "result": "87 % of control"}, {"measurement": "T/C", "setting": "[9]", "result": "95 % of control"}]}, {"smiles": "CCO[Si](OCC)OCC", "values": [{"measurement": "T/C", "setting": "endpoint: mean survival time, dose: 75.0 mg/kg/injection, schedule: Q01DX001 (ip), vehicle: saline", "result": "108 % of control"}]}, {"smiles": "COc1cc(CC2c3cc(OC)c(OC)cc3CCN2C)c(Oc2cc3c(cc2OC)-c2c(OC)c(OC)c(OC)c4c2C(C3)N(C)CC4)cc1OC", "note": "(stereo not given)", "values": [{"measurement": "T/C", "setting": "[5]", "result": "95 % of control"}, {"measurement": "T/C", "setting": "[6]", "result": "86 % of control"}]}]}
